Source: ChEMBL document CHEMBL4602709 (ACS Med Chem Lett, 2020)

Tests used:
Homo sapiens = species: Homo sapiens; assay: Inhibition of VEGFR (unknown origin) assessed as residual activity at 10 uM incubated for 5 mins in presence of [gamma-33ATP] by scintillation counting based radiometry assay relative to control
[1] = target: T1, Discoidin domain-containing receptor 2 (Homo sapiens) (UniProt Q16832); assay: Inhibition of DDR2 (unknown origin) assessed as residual activity at 10 uM incubated for 5 mins in presence of [gamma-33ATP] by scintillation counting based radiometry assay relative to control
T1 sequence (whole entry): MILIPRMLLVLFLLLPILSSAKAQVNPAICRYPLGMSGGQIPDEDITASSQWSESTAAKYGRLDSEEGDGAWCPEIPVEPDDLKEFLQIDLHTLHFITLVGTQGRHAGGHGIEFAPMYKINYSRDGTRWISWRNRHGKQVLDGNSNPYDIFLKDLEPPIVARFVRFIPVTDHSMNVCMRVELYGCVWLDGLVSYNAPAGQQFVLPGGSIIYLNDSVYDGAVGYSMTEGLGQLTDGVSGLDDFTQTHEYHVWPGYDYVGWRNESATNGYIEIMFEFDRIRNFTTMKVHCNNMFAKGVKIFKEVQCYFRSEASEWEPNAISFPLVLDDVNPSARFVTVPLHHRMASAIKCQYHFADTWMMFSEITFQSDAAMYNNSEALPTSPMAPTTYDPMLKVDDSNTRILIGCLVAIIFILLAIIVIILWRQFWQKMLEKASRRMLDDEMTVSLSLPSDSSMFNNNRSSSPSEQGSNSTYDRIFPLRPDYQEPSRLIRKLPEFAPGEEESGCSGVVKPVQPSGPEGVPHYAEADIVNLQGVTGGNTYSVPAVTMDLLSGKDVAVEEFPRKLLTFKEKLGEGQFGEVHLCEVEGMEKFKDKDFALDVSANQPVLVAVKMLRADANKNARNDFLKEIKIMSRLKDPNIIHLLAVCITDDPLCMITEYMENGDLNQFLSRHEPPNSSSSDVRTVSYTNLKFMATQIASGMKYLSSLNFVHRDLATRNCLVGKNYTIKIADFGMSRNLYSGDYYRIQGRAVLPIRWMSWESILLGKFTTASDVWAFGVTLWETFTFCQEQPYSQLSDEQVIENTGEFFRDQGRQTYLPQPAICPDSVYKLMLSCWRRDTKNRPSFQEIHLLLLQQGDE

[2] = target: Tyrosine-protein kinase Lck (Homo sapiens, UniProt P06239); assay: Inhibition of LCK (unknown origin) assessed as residual activity at 10 uM incubated for 5 mins in presence of [gamma-33ATP] by scintillation counting based radiometry assay relative to control
[3] = target: Serine/threonine-protein kinase Nek6 (Homo sapiens, UniProt Q9HC98); assay: Inhibition of NEK6 (unknown origin) assessed as residual activity at 10 uM incubated for 5 mins in presence of [gamma-33ATP] by scintillation counting based radiometry assay relative to control
[4] = target: T2, Ephrin type-B receptor 3 (Homo sapiens) (UniProt P54753); assay: Inhibition of EPHB3 (unknown origin) assessed as residual activity at 10 uM incubated for 5 mins in presence of [gamma-33ATP] by scintillation counting based radiometry assay relative to control
T2 sequence (whole entry): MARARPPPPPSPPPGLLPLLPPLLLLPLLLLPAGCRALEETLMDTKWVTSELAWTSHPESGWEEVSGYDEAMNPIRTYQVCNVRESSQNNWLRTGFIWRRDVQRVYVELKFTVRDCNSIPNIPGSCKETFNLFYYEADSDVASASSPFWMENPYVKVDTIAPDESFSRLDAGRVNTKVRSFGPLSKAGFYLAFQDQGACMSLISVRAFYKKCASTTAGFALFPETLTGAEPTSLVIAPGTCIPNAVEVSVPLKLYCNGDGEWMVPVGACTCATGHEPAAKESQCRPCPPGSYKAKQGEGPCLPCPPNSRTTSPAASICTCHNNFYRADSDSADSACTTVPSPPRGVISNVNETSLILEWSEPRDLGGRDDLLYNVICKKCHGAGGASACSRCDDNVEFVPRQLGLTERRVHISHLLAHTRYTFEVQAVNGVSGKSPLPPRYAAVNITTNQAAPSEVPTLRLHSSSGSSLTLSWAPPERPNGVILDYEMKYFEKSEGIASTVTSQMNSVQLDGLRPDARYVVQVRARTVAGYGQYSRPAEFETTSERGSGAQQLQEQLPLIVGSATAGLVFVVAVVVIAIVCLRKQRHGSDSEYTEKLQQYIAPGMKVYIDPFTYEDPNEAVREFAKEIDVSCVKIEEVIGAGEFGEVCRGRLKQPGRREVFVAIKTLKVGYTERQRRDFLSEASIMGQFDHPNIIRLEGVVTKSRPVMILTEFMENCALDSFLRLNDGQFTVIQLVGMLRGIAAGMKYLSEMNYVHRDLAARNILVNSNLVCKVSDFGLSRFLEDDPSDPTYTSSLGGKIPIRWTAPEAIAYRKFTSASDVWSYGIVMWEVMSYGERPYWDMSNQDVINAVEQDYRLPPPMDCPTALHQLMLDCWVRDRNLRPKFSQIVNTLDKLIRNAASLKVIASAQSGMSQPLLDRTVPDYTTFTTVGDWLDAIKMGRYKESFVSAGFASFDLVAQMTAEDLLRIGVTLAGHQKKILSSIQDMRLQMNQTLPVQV

[5] = Metabolic stability in human liver microsomes assessed as half life at 3 uM measured up to 30 mins in presence of NADPH by […] analysis; format: ADME, Microsome

Chain of Serine/threonine-protein kinase Nek6 (Q9HC98 whole entry): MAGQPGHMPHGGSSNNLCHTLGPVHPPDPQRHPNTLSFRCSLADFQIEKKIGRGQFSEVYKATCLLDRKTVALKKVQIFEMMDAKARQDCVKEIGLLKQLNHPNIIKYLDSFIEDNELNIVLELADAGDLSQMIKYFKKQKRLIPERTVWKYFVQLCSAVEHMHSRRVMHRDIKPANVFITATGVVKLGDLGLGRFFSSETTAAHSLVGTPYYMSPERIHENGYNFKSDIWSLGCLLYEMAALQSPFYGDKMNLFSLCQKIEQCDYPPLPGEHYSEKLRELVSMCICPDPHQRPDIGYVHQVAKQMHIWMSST
Chain of Tyrosine-protein kinase Lck (P06239 2-509 limits assumed): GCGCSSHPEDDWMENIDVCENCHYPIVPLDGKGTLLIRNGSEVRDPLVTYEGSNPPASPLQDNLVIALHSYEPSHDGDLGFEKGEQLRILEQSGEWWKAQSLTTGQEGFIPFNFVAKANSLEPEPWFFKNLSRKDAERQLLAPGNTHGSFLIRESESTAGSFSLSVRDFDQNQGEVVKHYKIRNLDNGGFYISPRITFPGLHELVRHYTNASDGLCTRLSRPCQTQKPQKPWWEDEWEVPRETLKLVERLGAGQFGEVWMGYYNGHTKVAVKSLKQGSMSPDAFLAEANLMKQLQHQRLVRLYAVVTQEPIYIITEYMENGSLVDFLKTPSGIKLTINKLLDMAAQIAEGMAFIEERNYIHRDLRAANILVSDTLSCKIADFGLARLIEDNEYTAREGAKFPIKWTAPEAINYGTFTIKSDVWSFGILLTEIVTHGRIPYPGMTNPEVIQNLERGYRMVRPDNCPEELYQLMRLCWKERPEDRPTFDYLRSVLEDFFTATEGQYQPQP

Row | Structure (SMILES) | Activity (Homo sapiens) | Activity [1] | Activity [2] | Activity [3] | Activity [4] | half-life at 3 µM [5]
1 | Cc1ccc(C(=O)Nc2ccc(CN3Cc4cn[nH]c4C3)c(Cl)c2)cc1C#Cc1cnc2cccnn12 | 13% | 14% | 17% | 9% | 5% | 39.8 min
2 | Cc1cn(-c2cc(NC(=O)c3ccc(C)c(Nc4nccc(-c5cccnc5)n4)c3)cc(C(F)(F)F)c2)cn1 [NILOTINIB] | 75% | 4% | 37% | 97% | 52% | 7.89 min
